Here are results for 18 molecules from patent publication US20240101548A1, “HYDROXAMATE COMPOUND, PREPARATION METHOD THEREFOR AND APPLICATION THEREOF” (SHENZHEN CHIPSCREEN BIOSCIENCES CO., LTD., priority 2020, published 2024).

Read-outs that look alike come from different tables or passages of the source. Where only a bound is given, the exact number is not on record here.

What all share (assay type): cell-based, human
The subject of test [1] is IL-10-induced JAK1/TYK2 signal pathway. Description: IL-10-induced JAK1/TYK2 signal pathway STAT3-Luc reporter gene assay in U2OS cells. The following applies: Homo sapiens, U2OS cells, STAT3-Luc reporter, IL-10 10 ng/mL, read-out: Half inhibition dose (IC50) on IL-10-induced JAK1/TYK2 signal pathway. The text has this:
Cytokine IL-10 is one of the main members of IL-10 family. The receptor that cytokine IL-10 binds to consists of two kinds of subunits, i.e., IL-10R1 and IL-10R2, which respectively couple with JAK1 and TYK2. After the coupling of IL-10 with its receptor, interaction of phosphorylation occurs between JAK1 and TYK2 to form STAT3 docking site for phosphorylation of STAT3. The phosphorylated STAT3 enters the nucleus and drives the transcription and expression of downstream genes.
The reporter gene plasmid STAT3-Luc Reporter used in the present invention has luciferase expression sequence as the reporter gene, upstream of which is a promoter sequence containing multiple STAT3 binding sites. When phosphorylated STAT3 induced by IL-10 signal pathway binds to the promoter of STAT3-Luc Reporter plasmid, luciferase is transcribed and expressed. The excitation fluorescence catalyzed by Luciferase can be detected after the addition of […] substrate, whose intensity can quantitively reflect the activation level of the signal pathway.
Human osteosarcoma cell line U20S was commercially available from American Type Culture Collection (ATCC), and relevant culture conditions referred to those from ATCC. It was known that such cell line could express IL-10R2, JAK1, TYK2 and STAT3, therefore, by exogenous expression of IL-10R1 gene, a complete IL-10 signal pathway could be established. The human IL-10R1 subunit overexpression plasmid pCMV3-IL10RA-EGFP was constructed by Shanghai Genechem Co., Ltd., and capable of simultaneously expressing enhanced green fluorescent protein. In the subsequent detection and calculation, the signal of green fluorescent protein in the tested sample was used as a reference for transfection efficiency calibration of the luciferase reporter gene signal. Reporter plasmid STAT3-Luc Reporter was commercially available from Ji Man Biotech (Shanghai) Co., Ltd.
X-tremeGENE 9 DNA Transfection Reagent (Roche) was used for the transfection of plasmid DNA into cells, Cell Culture Lysis 5× reagent (Promega) and Luciferase Assay System (Promega) were used in cell lysate preparation and enzyme-substrate reaction for luciferase reporter gene detection. Green fluorescent protein signal and luciferase reporter gene signal were both detected by Tecan Spark™ 10M multimode microplate reader. The inhibition rate of the tested compound on the IL-10 signal pathway reporter gene signal and the half inhibition dose IC50 were both calculated using Microsoft Excel and GraphPad Prism 7.00 software.
U2OS cell line was inoculated in 96-well plate with flat bottom at 5000 cells per well, and cultured overnight at 37° C. and 5% CO2 followed by plasmid transfection. Following the instructions and using X-tremeGENE 9 DNA Transfection Reagent, pCMV3-IL10RA-EGFP and STAT3-Luc Reporter plasmids were co-transfected into the inoculated U2OS cells. After 24 hours of transfection, the tested compound was added respectively for a final concentration of 0, 0.1, 0.3, 1, 3, 10, 30, 100, or 300 nM. After 6 hours of culture at 37° C. and 5% CO2, IL-10 cytokine (Human IL-10 PEPROTECH 200-10-10UG) was added to each well for a final concentration of 10 ng/mL, the well in which neither compound nor cytokine was added was designated as 0% control well. The culture was continued for 24 hours before testing.
Cell lysate was prepared by using Cell Culture Lysis reagent and transferred to 96-well plate with half-well clear bottom. The green fluorescent protein signal value was detected at Ex485/Em520 using Tecan microplate reader, and recorded. After adding to each well the luciferase substrate from Luciferase Assay System, the signal value of luciferase-substrate reaction was immediately detected at 560 nm using Tecan microplate reader, and recorded.
Using Microsoft Excel software, the signal value of luciferase-substrate reaction of each well was calculated and calibrated based on the signal value of green fluorescent protein of each well. […]
On the technique in general: In a reporter assay the amount or activity of a reporter protein is the signal.

Test [2] relates to EPO-induced JAK2 signal pathway. Briefly: EPO-induced proliferation of UT-7 cells (JAK2 signal). The settings on record: Homo sapiens, UT7; UT-7 cell proliferation, EPO 10 ng/mL, 72 hours; read-out: Inhibition activity IC50 on EPO-induced JAK2 signal pathway. An outline of the steps:
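UT-7 cells (15000/well) stimulated with 10 ng/mL human recombinant EPO plus compound at final 0, 100, 1000 or 10000 nM, 72 h at 37° C., 5% CO2. Proliferation by alamarBlue fluorescence (Ex530/Em590); inhibition normalised to no-cytokine/no-compound (0) and EPO-only (100) wells, […] derived from dose-inhibition.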

The subject of test [3] is IL-2-induced JAK1/JAK3 signal pathway. Briefly: IL-2-induced proliferation of KHYG-1 cells (JAK1/JAK3 signal). The settings on record: Homo sapiens; KHYG-1 cell proliferation, IL-2 10 ng/mL, 72 hours; read-out: Inhibition activity IC50 on IL-2-induced JAK1/JAK3 signal pathway. In outline: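 KHYG-1 NK lymphoma cells were cultured with IL-2 and test compound at various doses for 72 h at 37 °C and 5% CO2, and proliferation was read with alamarBlue fluorescence. Inhibition was normalized to wells without compound or cytokine (0%) and IL-2 wells without compound (100%), and C50 was derived from the dose-inhibition data.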

Turning to `CONC(=O)c1cnc(NC(=O)C2CC2)cc1Nc1ccccc1N(C)S(C)(=O)=O` [Example 2, 6-(cyclopropylcarboxamido)-N-methoxy-4-((2-(N-methylmethanesulfonamido)phenyl)amino)nicotinamide], the IC50 in test [1] (U2OS) is 1.58 nM; in test [2] it was above 10000 nM; in test [3], above 10000 nM.

For `CONC(=O)c1cnc(Nc2ccc(F)cn2)cc1Nc1ccccc1N(C)S(C)(=O)=O` [Example 4, 6-((5-fluoropyridin-2-yl)amino)-N-methoxy-4-((2-(N-methylmethanesulfonamido)phenyl)amino)nicotinamide], the values for the IC50 in test [1] (U2OS), in test [2] and in test [3] were 0.705 nM, above 10000 nM and above 10000 nM, respectively.

Regarding `CONC(=O)c1cnc(NC(=O)C2CC2)cc1Nc1ccc(C(F)(F)F)cc1N(C)S(C)(=O)=O` [Example 10, 6-(cyclopropylcarboxamido)-N-methoxy-4-((2-(N-methylmethanesulfonamido)-4-(trifluoromethyl)phenyl)amino)nicotinamide], the IC50 in test [1] was 1.18 nM; in test [2] it was above 10000 nM; in test [3] it was above 10000 nM.

For `CONC(=O)c1cnc(NC(=O)C2CC2)cc1Nc1ccc(C2CC2)cc1N(C)S(C)(=O)=O` [Example 12, 6-(cyclopropylcarboxamido)-4-((4-cyclopropyl-2-(N-methylmethanesulfonamido)phenyl)amino)-N-methoxy nicotinamide], the figures for the IC50 in test [1], in test [2] and in test [3] were 0.961 nM, above 10000 nM and above 10000 nM, respectively.

Take `CONC(=O)c1cnc(Nc2ccc(F)cn2)cc1Nc1ccc(C2CC2)cc1N(C)S(C)(=O)=O` [Example 13, 4-((4-cyclopropyl-2-(N-methylmethanesulfonamido)phenyl)amino)-6-((5-fluoropyridin-2-yl)amino)-N-methoxy nicotinamide]: the IC50 is 1.1 nM in test [1] (U2OS), above 10000 nM in test [2] and above 10000 nM in test [3].

As to `CONC(=O)c1cnc(Nc2cccc(F)n2)cc1Nc1ccc(C2CC2)cc1N(C)S(C)(=O)=O` [Example 14, 4-((4-cyclopropyl-2-(N-methylmethanesulfonamido)phenyl)amino)-6-((6-fluoropyridin-2-yl)amino)-N-methoxy nicotinamide], the IC50 in test [1] (U2OS) is 0.874 nM; in test [2], above 10000 nM; in test [3] it was above 10000 nM.

For the molecule `CONC(=O)c1cnc(Nc2ccc(OC)cn2)cc1Nc1ccc(C2CC2)cc1N(C)S(C)(=O)=O` [Example 16, 4-((4-cyclopropyl-2-(N-methylmethanesulfonamido)phenyl)amino)-N-methoxy-6-((5-methoxypyridin-2-yl)amino)nicotinamide], the results for the IC50 in test [1] (U2OS), in test [2] and in test [3] were 1.27 nM, above 10000 nM and above 10000 nM, respectively.

Consider `C#Cc1ccc(Nc2cc(Nc3ccc(OC)cn3)ncc2C(=O)NOC)c(N(C)S(C)(=O)=O)c1` [Example 18, 4-((4-ethynyl-2-(N-methylmethanesulfonamido)phenyl)amino)-N-methoxy-6-((5-methoxypyridin-2-yl)amino)nicotinamide], for which the IC50 in test [1] is 0.784 nM; in test [2], above 10000 nM; in test [3], above 10000 nM.

`C#Cc1ccc(Nc2cc(Nc3cccc(F)n3)ncc2C(=O)NOC)c(N(C)S(C)(=O)=O)c1` [Example 19]: the IC50 was 1.06 nM in test [1] (U2OS), above 10000 nM in test [2] and above 10000 nM in test [3].

As to `CCONC(=O)c1cnc(Nc2ccc(OC)cn2)cc1Nc1ccc(C2CC2)cc1N(C)S(C)(=O)=O` [Example 20, 4-((4-cyclopropyl-2-(N-methylmethanesulfonamido)phenyl)amino)-N-ethoxy-6-((5-methoxypyridin-2-yl)amino)nicotinamide], the IC50 was 0.955 nM in test [1] (U2OS), above 10000 nM in test [2] and above 10000 nM in test [3].

`CCONC(=O)c1cnc(Nc2cccc(F)n2)cc1Nc1ccc(C2CC2)cc1N(C)S(C)(=O)=O` [Example 22, 4-((4-cyclopropyl-2-(N-methylmethanesulfonamido)phenyl)amino)-N-ethoxy-6-((6-fluoropyridin-2-yl)amino)nicotinamide]: the figures for the IC50 in test [1] (U2OS), in test [2] and in test [3] were 0.57 nM, above 10000 nM and above 10000 nM, respectively.

For `CONC(=O)c1cnc(NC(=O)C2CC2)cc1Nc1cccc(-c2ccn(C)n2)c1OC` [Example 29, 6-(cyclopropylcarboxamido)-N-methoxy-4-((2-methoxy-3-(1-methyl-1H-pyrazol-3-yl)phenyl)amino)nicotinamide], the IC50 was 2.33 nM in test [1] (U2OS), above 10000 nM in test [2] and above 10000 nM in test [3].

Take `CONC(=O)c1cnc(Nc2cccc(F)n2)cc1Nc1cccnc1N(C)S(C)(=O)=O` [Example 36, 6-((6-fluoropyridin-2-yl)amino)-N-methoxy-4-((2-(N-methylmethanesulfonamido)pyridin-3-yl)amino)nicotinamide]: the IC50 in test [1] (U2OS) is 0.686 nM; in test [2] it was above 10000 nM; in test [3], above 10000 nM.

With `CONC(=O)c1cnc(Nc2cccc(F)n2)cc1Nc1cccc(F)c1N(C)S(C)(=O)=O` [Example 38, 4-((3-fluoro-2-(N-methylmethanesulfonamido)phenyl)amino)-6-((6-fluoropyridin-2-yl)amino)-N-methoxy nicotinamide], the IC50 in test [1] (U2OS) is 0.506 nM; in test [2], above 10000 nM; in test [3], above 10000 nM.

`CONC(=O)c1cnc(NC(=O)C2CC2)cc1Nc1cccc(-n2cccn2)c1OC` [Example 41, 6-(cyclopropylcarboxamido)-N-methoxy-4-((2-methoxy-3-(1H-pyrazol-1-yl)phenyl)amino)nicotinamide]: the IC50 was 1.7 nM in test [1], above 10000 nM in test [2] and above 10000 nM in test [3].

With `CONC(=O)c1cnc(Nc2cccc(F)n2)cc1Nc1cccc(-n2cccn2)c1OC` [Example 42, 6-((6-fluoropyridin-2-yl)amino)-N-methoxy-4-((2-methoxy-3-(1H-pyrazol-1-yl)phenyl)amino)nicotinamide], the IC50 in test [1] (U2OS) was 1.51 nM; in test [2], above 10000 nM; in test [3] it was above 10000 nM.

With `CONC(=O)c1cnc(Nc2ccc(C#N)cn2)cc1Nc1ccccc1N(C)S(C)(=O)=O` [Example 43, 6-((5-cyanopyridin-2-yl)amino)-N-methoxy-4-((2-(N-methylmethanesulfonamido)phenyl)amino)nicotinamide], the IC50 in test [1] (U2OS) was 1.18 nM; in test [2], above 10000 nM; in test [3] it was above 10000 nM.

For `[2H]C([2H])([2H])NC(=O)c1cnc(Nc2ccccn2)cc1Nc1cccc(-c2ncc(F)cn2)c1OC` [Example 253, 4-((3-(5-fluoropyrimidin-2-yl)-2-methoxyphenyl)amino)-N-(methyl-d3)-6-(pyridin-2-ylamino)nicotinamide, reference compound], the IC50 in test [1] (U2OS) amounted to 9.75 nM.
